Measurements: patent publication US20130090371A1, “METHODS AND COMPOSITIONS FOR INHIBITION OF BETA2-ADRENERGIC RECEPTOR DEGRADATION” (PRESIDENT AND FELLOWS OF HARVARD COLLEGE, priority 2010, published 2013)
d = 2'-deoxy (DNA); r = 2'-OH (RNA)

Experiments:
β2AR [1] = assay: Immunoblot of exogenously expressed β2AR in 293β2AR cells; format: cell-based, human; settings: at a higher concentration; three days
Text: Three repeats were done with similar results.

β2AR [2] = assay: Immunoblot of β2AR protein in human airway smooth muscle (HASM) cells
Description: Error bars represented the standard deviations; Student t-test * p<0.05, n=2. […] Indirect Immunofluorescence staining of β2AR and phase contract images are shown.
Three days after the inhibitor treatment cell lysates were collected and analyzed by immunoblotting. Three repeats were done with similar results.
Immunoblot analysis. 48 h post DNA transfection, cells were wash with PBS and lysed with NP-40 lysing buffer (50 mM Tris-HCl pH7.5, 150 mM NaCl, 0.5% Nonidet P-40) containing protease inhibitor cocktail (Roche). Protein samples were separated on NuPAGE 10% Bis-Tris gels (Invitrogen) and transferred to nitrocellulose membranes (Bio-Rad). Immunoblot signals were developed using SuperSignal West Pico Chemiluminescent Substrate (Pierce, Rockford, Ill., USA) and quantified by a Luminescence Imager or exposed to X-ray films.

latrophilin 2 = assay: Quantitative real-time PCR of latrophilin 2 expression; format: cell-based, human; settings: vs NT siRNA
Text: FIG. 11A-11C show inhibition of an EST RNA (AA496068) increases latrophilin 2 expression and decreases β2-AR degradation. FIG. 11A show the genomic locus that is targeted by AA496068 EST shRNA (SEQ ID NO: 2). The shRNA corresponds to sequences in an EST AA496068, which is about 150 kb upstream of the latrophilin 2 gene, and binding of this shRNA […] (SEQ ID NO: 2) activates latrophilin 2 and decreases β2-AR degradation. Thus SEQ ID NO: 2 serves as an activator or agonist of lactrophinin 2. The whole region covering the EST and latrophilin 2 is also annotated as KIAA0786. […] Cells were then labeled with anti-FLAG-FITC and analyzed by flow cytometry. FIG. 11B are histograms showing the distribution of cells treated with vehicle (upper panel) or ISO (lower panel) are shown above. […] Total RNA was isolated from cells transfected with NT or AA496068 EST siRNAs. Latrophilin 2 and AA496068 EST expression was determined by reverse transcription using random hexamers followed by quantitative real-time PCR.

β2AR [3] = assay: Baseline β2AR expression in cells after AAEST knockdown; format: cell-based
β2AR [4] = assay: qRT-PCR of β2AR mRNA in HASM cells; format: cell-based, human; settings: AAEST siRNA
surface β2-AR = assay: Surface β2-AR by FACS (α-Flag FITC) after AAEST siRNA; format: cell-based, human; settings: text: HASM cells; legend FIG. 16A: HEK293 cells
wild-type β2AR [5] = molecular target: T1, wild-type β2AR (Homo sapiens, UniProt P07550); assay: Immunoblot of agonist-induced degradation of wild-type β2AR; format: cell-based; settings: siRNA-transfected cells
T1 construct: expressed in transfected cells; host or cells: HEK293 (293.β2AR^WT)
Description: β2AR ubiquitination and degradation assays. Cells expressing PAR or β2ARt were subjected to 10 μM ISO (Sigma) stimulation, lysed in 0.5% NP-40 lysis buffer and immunoblotted with anti-FLAG-HRP (Sigma). For β2AR ubiquitination, β2ARt or wt-β2AR expressing cells were first incubated with 10 μM alprenolol antagonist (Sigma) for 15 min (to reduce constitutive background ubiquitination), stimulated with 10 μM ISO and lysed in buffer supplemented with 10 mM N-ethylmaleimide (NEM; Sigma) to inhibit deubiquitinase activity. Anti-FLAG EZview beads (Sigma) used for the IP were subjected to three 10 min washes with lysis buffer and resuspended in 50 μl 2βLDS sample buffer (Invitrogen) containing 10% β-mercaptoethanol (Sigma) and analyzed by immunoblotting.

NEDD4/β2AR = molecular target: T2, NEDD4/β2AR (Homo sapiens, UniProt P07550); assay: IP assay of NEDD4/β2AR association in β2ARt-expressing cells; format: cell-based; settings: presence or absence of ISO stimulation
T2 construct: a distally truncated form (after residue 385) of β2AR (β2ARt); expressed in transfected cells; host or cells: HEK293 cells stably expressing FLAG-β2ARt
Description: FIGS. 10A-10B show ARRDC3 is an essential adaptor for β2AR ubiquitination. […] Cells stably expressing FLAG-β2ARt were transfected with siRNAs targeting nothing (scrambled), ARRDC3, or β-arrestin-2 and then subjected to a treatment with vehicle or ISO. Anti-FLAG immunoprecipitates from the corresponding lysates and whole cell extracts (WCE) were analyzed by immunoblotting with the indicated antibodies. FIG. 10B is a schematic model of ARRDC3 functioning as an adaptor for β2AR ubiquitination.
Co-immunoprecipitations (co-IP). 293T cells were transfected using Fugene 6 (Roche) or Turbofect (Fermentas). 48 h later, cells were lysed, pre-cleared with protein A agarose, and HA- or FLAG-tagged proteins were IP-ed using anti-HA EZview or anti-FLAG EZview beads. Washed beads were resuspended in sample buffer and analyzed by immunoblotting. Where noted, cross-linking was achieved by incubation for 40 min with 2 mM crosslinker dithio-bismaleimidoethane (DTME; Pierce) in PBS containing 10 mM Hepes (pH 7.5), as previously described (Shenoy et al, 2008) with minor modifications. IP complexes were washed three times consecutively in lysis, high salt, and low salt buffers then resuspended in sample buffer before immunoblotting.

wild-type β2AR [6] = molecular target: T1, wild-type β2AR; assay: β2AR ubiquitination assay, wild-type β2AR cells; format: cell-based; settings: ISO stimulation
Description: (§1) β2AR ubiquitination and degradation assays. Cells expressing […] or β2ARt were subjected to 10 μM ISO (Sigma) stimulation, lysed in 0.5% NP-40 lysis buffer and immunoblotted with anti-FLAG-HRP (Sigma). For β2AR ubiquitination, β2ARt or wt-β2AR expressing cells were first incubated with 10 μM alprenolol antagonist (Sigma) for 15 min (to reduce constitutive background ubiquitination), stimulated with 10 μM ISO and lysed in buffer supplemented with 10 mM N-ethylmaleimide (NEM; Sigma) to inhibit deubiquitinase activity. Anti-FLAG EZview beads (Sigma) used for the IP were subjected to three 10 min washes with lysis buffer and resuspended in 50 μl 2βLDS sample buffer (Invitrogen) containing 10% β-mercaptoethanol (Sigma) and analyzed by immunoblotting.

β2ARt [7] = molecular target: T3, β2ARt (Homo sapiens, UniProt P07550); assay: Immunoblot of agonist-induced β2AR degradation in 293β2AR* / β2ARt cells; format: cell-based
T3 construct: a distally truncated form (after residue 385) of β2AR (β2ARt); expressed in transfected cells; host or cells: HEK293 (293.β2AR*)
Description: as §1

β2ARt [8] = molecular target: T3, β2ARt; assay: β2AR ubiquitination assay, β2ARt cells; format: cell-based; settings: ISO stimulation
Description: as §1

ARRDC3 = ARRDC3 protein knockdown by siRNA; format: cell-based, human

**Q.** How did the β2AR protein level (β2AR [1]) turn out when `O=C(O)c1ccc2c3c1cccc3c(=O)n1c3ccccc3nc21` [STO-609] was run?
**A.** The β2AR protein level was “increased exogenously expressed β2AR protein”.

**Q.** And the β2AR protein level (β2AR [2]; at as low as 2 μM, three days)?
**A.** Its β2AR protein level is “an increase in β2AR”.

**Q.** For “AA496068 EST siRNAs: siRNA having the sequence UAAUAUUUAAUGAGGCGGCCU (SEQ ID NO: 27) (listed as RNA, chemistry not given here)”, which “latrophilin 2 expression” value (latrophilin 2) is on record?
**A.** Its value is “increases the expression of latrophilin 2”.

**Q.** Which “baseline β2AR expression” value (β2AR [3]) does the source give for “AAEST siRNA: 5′ UAAUAUUUAAUGAGGCGGCCUdTdT (SEQ ID NO: 34) and/or 5′ AGGCCGCCUCAUUAAAUAUUAdTdT (SEQ ID NO: 35) (chain 1 UAAUAUUUAAUGAGGCGGCCUTT; chain 2 AGGCCGCCUCAUUAAAUAUUATT; sugars from the 5' end r21 d2, backbone not given here)” here?
**A.** Its value is “an increase in baseline β2AR expression”.

**Q.** And the “mRNA expression level of β2-adrenergic receptor” value (β2AR [4])?
**A.** The value was “did not decrease the mRNA expression level”.

**Q.** What about the “presence of β2-AR on the cell surface” value (surface β2-AR) of the same compound?
**A.** Its value is “decreases the presence of β2-AR on the surface”.

**Q.** And the “total β2-AR protein expression” value (β2AR [2]; western blot, FIG. 16B)?
**A.** The value was “decreased total β2-AR protein expression”.

**Q.** What does the source list for “ARRDC3 siRNA: siRNA having the sequence GAACUGCUCUUCCCGAAUG (SEQ ID NO: 25) (chemistry not given here)”?
**A.** ISO-induced degradation of wild-type β2AR (wild-type β2AR [5]): blocked; association of NEDD4 with β2AR (NEDD4/β2AR): completely abrogated; reduction in ubiquitinated β2AR compared to ISO-treated control (wild-type β2AR [6]): −30%; level of un-degraded receptor after ISO vs scrambled control siRNA (β2ARt [7]; ISO-induced degradation of β2ARt): about 6 fold; increase in basal level of the receptor (β2ARt [7]; prior to ISO stimulation): < 2 fold; reduction in normalized amount of ubiquitinated β2AR compared to ISO-treated control (β2ARt [8]): −70%; knockdown of ARRDC3 protein expression (ARRDC3): > 75%
